The numbers were not newly measured in patent publication US20170027908A1, “Pharmaceutical Composition” (CIPLA Limited, priority 2011, published 2017), which cites them from elsewhere.

Data set [1] concerns airway hyperresponsiveness. The conditions noted are these: as compared to fluticasone propionate.
For data set [2] the following is noted: in vivo.

The structures appear in SMILES notation.

As to `C[C@@H]1C[C@H]2[C@@H]3C[C@H](F)C4=CC(=O)C=C[C@]4(C)[C@@]3(F)[C@@H](O)C[C@]2(C)[C@@]1(OC(=O)c1ccco1)C(=O)SCF` [fluticasone furoate], in data set [1], the “prolonged protection against airway hyperresponsiveness” value is reported as “up to 26 hours”. Also, the elimination half life in data set [2] is 15.1 h.
